Assay results published in paper PMC3441526, “KCN1, a Novel Synthetic Sulfonamide Anticancer Agent: In Vitro and In Vivo Anti-Pancreatic Cancer Activities and Preclinical Pharmacology” (PLoS ONE, 2012).

Key:
BxPC3 cells [1] = assay: BrdUrd incorporation cell proliferation assay; type: cell-based; conditions: Homo sapiens, BXPC-3; BxPC3, 50 µM, 24 h
Experimental: (§1) The effect of KCN1 on cell proliferation was determined using the BrdUrd incorporation assay (Oncogene, La Jolla, CA) according to the manufacturer’s instructions, [47]. In brief, cells were seeded in 96-well plates (8 × 10^3 to 1.2 × 10^4 cells per well) and incubated with various concentrations of KCN1 (0, 5, 12.5 and 50 µM) for 24 h. BrdUrd was added to the medium 10 h before termination of the experiment. The BrdUrd incorporated into cells was determined by anti-BrdUrd antibody, and absorbance was measured at dual wavelengths of 450/540 nm using an OPTImax microplate reader (Molecular Devices; Sunnyvale, CA).

HPAC cells [2] = assay: BrdUrd incorporation cell proliferation assay; type: cell-based; conditions: Homo sapiens, 24 h
Experimental: as §1

Mia Paca-2 cells [3] = assay: BrdUrd incorporation cell proliferation assay; type: cell-based; conditions: Homo sapiens; Mia Paca-2, 50 µM, 24 h
Experimental: as §1

Panc-1 cells [4] = assay: BrdUrd incorporation cell proliferation assay; type: cell-based; conditions: Homo sapiens; Panc-1, 50 µM, 24 h
Experimental: as §1

HPAC cells [5] = assay: Anchorage-independent growth assay (soft agar); type: cell-based, human; conditions: 14 days
Experimental: (§2) Pancreatic cancer cells were treated with various concentrations of KCN1 in 0.8 ml of 0.35% agar containing 10% FBS. The cultures were maintained in 37°C, 5% CO2 incubator for two weeks. Then, cell colonies were observed and scored under a microscope.

Panc-1 cells [6] = assay: Anchorage-independent growth assay (soft agar); type: cell-based, human; conditions: Panc-1, soft agar, 14 days
Experimental: as §2

[7] = Plasma stability determination; type: in vitro ADME, mouse
Experimental: The validated HPLC method was used to evaluate the stability of KCN1 in mouse plasma at 37°C, 4°C and −80°C. KCN1 was dissolved in methanol and diluted with plasma to achieve the two concentrations used in the study: 1 and 10 µM. At the designated time points, samples were removed and extracted using the aforementioned procedure. KCN1 concentrations were quantified and, to illustrate the in vitro stability of the compound, expressed as percentages of the initial concentration.

immortalized fibroblasts = system: immortalized fibroblasts; design: method as in PMID 22923450; conditions: immortalized fibroblasts ref 31; cited from earlier work
BxPC3 cells [8] = assay: Annexin V apoptosis assay; type: cell-based, human; conditions: BxPC3, 50 µM, 48 h
Experimental: (§3) Cells in early and late stages of apoptosis were detected using an Annexin V-FITC apoptosis detection kit from BioVision (Mountain View, CA), according the manufacturer’s protocol, [47]. In brief, 2–3×10^5 cells were exposed to various doses of the test compound KCN1 (0, 5, 12.5, 50 µM) and incubated for 48 h prior to analysis. The samples were analyzed using a Becton Dickinson FACSCalibur instrument (Ex = 488 nm; Em = 530 nm). Cells that were positive for Annexin V-FITC alone (early apoptosis) and Annexin V-FITC and PI (late apoptosis) were counted.

HPAC cells [9] = assay: Annexin V apoptosis assay; type: cell-based, human; conditions: 50 µM, 48 h, against untreated control
Experimental: as §3

Mia Paca-2 cells [10] = assay: Annexin V apoptosis assay; type: cell-based, human; conditions: Mia Paca-2, 50 µM, 48 h
Experimental: as §3

Panc-1 cells [11] = assay: Annexin V apoptosis assay; type: cell-based, human; conditions: Panc-1, 50 µM, 48 h
Experimental: as §3

glioma cells = system: glioma cells; design: method as in PMID 22923450; conditions: glioma cells ref 31; cited from earlier work

SMILES: COc1ccc(S(=O)(=O)N(Cc2ccc3c(c2)C=CC(C)(C)O3)c2ccccc2)cc1OC [KCN1, 3,4-dimethoxy-N-[(2,2-dimethyl-2H-chromen-6-yl)methyl]-N-phenylbenzenesulfonamide]
- inhibition at 50 µM (BxPC3 cells [1]): ~88%
- inhibition at 50 µM (HPAC cells [2]): ~80%
- inhibition at 50 µM (Mia Paca-2 cells [3]): ~60%
- inhibition at 50 µM (Panc-1 cells [4]): ~56%
- decrease in number of colonies formed (HPAC cells [5]): 4 fold
- decrease in number of colonies formed (Panc-1 cells [6]): 3 fold
- compound remaining in mouse plasma ([7]; 4°C, at least 24 hr): more than 90%
- compound remaining in mouse plasma ([7]; 37°C, 8 hr, 1 µM): more than 80%
- compound remaining in mouse plasma ([7]; 37°C, 8 hr, 10 µM): more than 80%
- compound remaining in mouse plasma ([7]; −80°C, up to 4 wks): more than 92%
- cytostatic effect (immortalized fibroblasts): little cytostatic effect
- apoptotic activity (BxPC3 cells [8]): no detectable apoptotic activity
- apoptotic index (HPAC cells [9]): 1.4 fold
- apoptotic activity (Mia Paca-2 cells [10]): no detectable apoptotic activity
- apoptotic activity (Panc-1 cells [11]): no detectable apoptotic activity
- cytostatic effect (glioma cells): little cytostatic effect
